Key:
[1] = refractive index (Na D-line) (dimensionless); xn = mol fraction of the nth substance listed; settings: 101 kPa, Liquid, Standard Abbe refractometry
[2] = xn = mol fraction of the nth substance listed; settings: 101 kPa, Liquid; for viscosity: Capillary tube (Ostwald / Ubbelohde) method; for mass density: Vibrating tube method

CCC(C)(C)O [2-methylbutan-2-ol] + C1CCOC1
Settings | mass density, 288.15 K [kg/m3] | mass density, 298.15 K [kg/m3] | mass density, 308.15 K [kg/m3] | refractive index, 288.15 K | refractive index, 298.15 K | refractive index, 308.15 K | viscosity, 288.15 K [mPa·s] | viscosity, 298.15 K [mPa·s] | viscosity, 308.15 K [mPa·s]
[1], x1 = 0.1028 | – | – | – | 1.4076 | 1.4027 | 1.3979 | – | – | –
[1], x1 = 0.1791 | – | – | – | 1.4069 | 1.4022 | 1.3974 | – | – | –
[1], x1 = 0.2676 | – | – | – | 1.4065 | 1.4018 | 1.3972 | – | – | –
[1], x1 = 0.3601 | – | – | – | 1.4064 | 1.4018 | 1.3971 | – | – | –
[1], x1 = 0.45 | – | – | – | 1.4066 | 1.402 | 1.3972 | – | – | –
[1], x1 = 0.5402 | – | – | – | 1.4068 | 1.4022 | 1.3974 | – | – | –
[1], x1 = 0.6295 | – | – | – | 1.407 | 1.4023 | 1.3976 | – | – | –
[1], x1 = 0.7058 | – | – | – | 1.4071 | 1.4024 | 1.3977 | – | – | –
[1], x1 = 0.8097 | – | – | – | 1.4071 | 1.4024 | 1.3977 | – | – | –
[1], x1 = 0.8903 | – | – | – | 1.4069 | 1.4022 | 1.3975 | – | – | –
[1], x1 = 0.9629 | – | – | – | 1.4065 | 1.4018 | 1.3972 | – | – | –
[1], x1 = 1 | – | – | – | 1.4062 | 1.4015 | 1.3968 | – | – | –
[2], x1 = 0.1028 | 881.2 | 870.63 | 859.92 | – | – | – | 0.7142 | 0.5079 | 0.4359
[2], x1 = 0.1791 | 873.29 | 862.93 | 852.42 | – | – | – | 0.895 | 0.5724 | 0.4592
[2], x1 = 0.2676 | 865.01 | 854.87 | 844.57 | – | – | – | 1.13 | 0.6232 | 0.5449
[2], x1 = 0.3601 | 857.15 | 847.22 | 837.11 | – | – | – | 1.365 | 0.7532 | 0.6428
[2], x1 = 0.45 | 850.2 | 840.46 | 830.51 | – | – | – | 1.63 | 0.8859 | 0.747
[2], x1 = 0.5402 | 843.79 | 834.19 | 824.37 | – | – | – | 1.968 | 1.064 | 0.8887
[2], x1 = 0.6295 | 837.94 | 828.48 | 818.76 | – | – | – | 2.399 | 1.288 | 1.055
[2], x1 = 0.7058 | 833.16 | 823.78 | 814.12 | – | – | – | 2.849 | 1.548 | 1.232
[2], x1 = 0.8097 | 826.96 | 817.62 | 808.01 | – | – | – | 3.623 | 2.008 | 1.548
[2], x1 = 0.8903 | 821.89 | 812.56 | 802.98 | – | – | – | 4.381 | 2.517 | 1.907
[2], x1 = 0.9629 | 816.9 | 807.57 | 798.22 | – | – | – | 5.245 | 3.052 | 2.234
[2], x1 = 1 | 814.01 | 804.88 | 795.52 | – | – | – | 5.867 | 3.478 | 2.504

Source: the NIST ThermoML archive (doi:10.1016/j.jct.2010.05.009)
